Experimental data: patent US10611731B2, “5-methyl-6-phenyl-4,5-dihydro-2H-pyridazin-3-one derivative” (OTSUKA PHARMACEUTICAL CO., LTD., priority 2016, dated 2020)

Test system: human childhood brain tumor cell lines (PFSK-1)
Assay: Growth inhibitory activity against PFSK-1 cells (WST-8, Cell Counting Kit-8)
Assay type: cell-based
Conditions: Homo sapiens, 72 h, 3 days incubation with test compound, WST-8 OD 450/630 nm, read-out: IC50 (concentration inhibiting 50% of the cell growth)
Experimental: The growth inhibitory activity against human childhood brain tumor cell lines (PFSK-1) was measured with WST-8 reagent [2-(2-methoxy-4-nitrophenyl)-3-(4-nitrophenyl)-5-(2,4-disulfophenyl)-2H-tetrazolium monosodium salt, Cell Counting Kit-8™], according to the method described in Tominaga, H. et al., Anal. Commun., 1999, 36, 47-50. Briefly, PFSK-1 was seeded in 96-well microplate at 100 μL/well with Roswell Park Memorial Institute (RPMI) 1640 medium containing 10% fetal bovine serum (FBS), and the cells were incubated in the presence of 5% carbon dioxide (CO2) at 37° C. for 24 hours. 50 μL of each test compound diluted with the medium was added to each well, and then the cells were incubated further for 3 days. After the incubation, 15 μL of Cell Counting Kit-8™ was added to each well, and the cells were incubated for one and half hours. Then, optical density (OD) values at measurement wavelength 450 nm and reference wavelength 630 nm were measured and the difference thereof was calculated. From the calculated difference, the OD value difference (at measurement wavelength 450 nm and reference wavelength 630 nm) of the control well which includes no cell was subtracted to afford cell-growth activity in each well.
The cell growth inhibitory activity of each test compound was calculated by comparing the cell-growth activity with each test compound to the cell-growth activity without any test compound (control), and each IC50 (nM) which is the concentration inhibiting 50% of the cell growth was calculated.

Cc1cc(C2=NNC(=O)CC2C)cc(Cl)c1OCCCCO (stereo not shown) [Example 79, 6-[3-Chloro-4-(4-hydroxybutoxy)-5-methylphenyl]-5-methyl-4,5-dihydro-2H-pyridazin-3-one]
IC50: 5.6 nM

CC1CC(=O)NN=C1c1cc(F)c(OCCCCO)c(Br)c1 (stereo not shown) [Example 80, 6-[3-Bromo-5-fluoro-4-(4-hydroxybutoxy)phenyl]-5-methyl-4,5-dihydro-2H-pyridazin-3-one]
IC50: 5.1 nM

CC1CC(=O)NN=C1c1cc(Cl)c(OCCCCO)c(Cl)c1 (stereo not shown) [Example 81, 6-[3,5-Dichloro-4-(4-hydroxybutoxy)phenyl]-5-methyl-4,5-dihydro-2H-pyridazin-3-one]
IC50: 4.7 nM

CC1CC(=O)NN=C1c1ccc(OCCCCO)c(F)c1F (stereo not shown) [Example 82, 6-[2,3-Difluoro-4-(4-hydroxybutoxy)phenyl]-5-methyl-4,5-dihydro-2H-pyridazin-3-one]
IC50: 6 nM

Cc1c(OCCCCO)ccc(C2=NNC(=O)CC2C)c1F (stereo not shown) [Example 83, 6-[2-Fluoro-4-(4-hydroxybutoxy)-3-methylphenyl]-5-methyl-4,5-dihydro-2H-pyridazin-3-one]
IC50: 6.6 nM

CC1CC(=O)NN=C1c1ccc(OCCCCO)c(Cl)c1F (stereo not shown) [Example 84, 6-[3-Chloro-2-fluoro-4-(4-hydroxybutoxy)phenyl]-5-methyl-4,5-dihydro-2H-pyridazin-3-one]
IC50: 3.3 nM

C=Cc1c(OCCCO)ccc(C2=NNC(=O)CC2C)c1F (stereo not shown) [Example 85, 6-[2-Fluoro-4-(3-hydroxypropoxy)-3-vinylphenyl]-5-methyl-4,5-dihydro-2H-pyridazin-3-one]
IC50: 4 nM

Cc1cc(C2=NNC(=O)CC2C)cc(Cl)c1OC/C=C\CO (stereo not shown) [Example 86, 6-{3-Chloro-4-[(Z)-4-hydroxy-2-butenyloxy]-5-methylphenyl}-5-methyl-4,5-dihydro-2H-pyridazin-3-one]
IC50: 4.6 nM

CC1CC(=O)NN=C1c1ccc(OC/C=C/CO)c(Cl)c1F (stereo not shown) [Example 90, 6-[3-Chloro-2-fluoro-4-[(E)-4-hydroxy-2-butenyloxy]phenyl}-5-methyl-4,5-dihydro-2H-pyridazin-3-one]
IC50: 3.9 nM

CC1CC(=O)NN=C1c1ccc(OCCCCCO)c(Cl)c1F (stereo not shown) [Example 91, 6-[3-Chloro-2-fluoro-4-(5-hydroxypentoxy)phenyl]-5-methyl-4,5-dihydro-2H-pyridazin-3-one]
IC50: 6 nM

Cc1c(OC/C=C\CO)ccc(C2=NNC(=O)CC2C)c1F (stereo not shown) [Example 92, 6-[2-Fluoro-4-[(Z)-4-hydroxy-2-butenyloxy]-3-methylphenyl]-5-methyl-4,5-dihydro-2H-pyridazin-3-one]
IC50: 4.9 nM

CC1CC(=O)NN=C1c1ccc(OC/C=C\CO)c(F)c1F (stereo not shown) [Example 93, 6-{2,3-Difluoro-4-[(Z)-4-hydroxy-2-butenyloxy]phenyl}-5-methyl-4,5-dihydro-2H-pyridazin-3-one]
IC50: 3.1 nM

CC1CC(=O)NN=C1c1cc(F)c(OC/C=C\CO)c(Cl)c1 (stereo not shown) [Example 94, 6-{3-Chloro-5-fluoro-4-[(Z)-4-hydroxy-2-butenyloxy]phenyl}-5-methyl-4,5-dihydro-2H-pyridazin-3-one]
IC50: 3 nM

CC1CC(=O)NN=C1c1cc(F)c(OC/C=C\CO)c(Br)c1 (stereo not shown) [Example 95, 6-{3-Bromo-5-fluoro-4-[(Z)-4-hydroxy-2-butenyloxy]phenyl}-5-methyl-4,5-dihydro-2H-pyridazin-3-one]
IC50: 3 nM

C=Cc1c(OC/C=C\CO)ccc(C2=NNC(=O)CC2C)c1F (stereo not shown) [Example 96, 6-{2-Fluoro-4-[(Z)-4-hydroxy-2-butenyloxy]-3-vinylphenyl}-5-methyl-4,5-dihydro-2H-pyridazin-3-one]
IC50: 3.9 nM

CCc1c(OCCCCO)ccc(C2=NNC(=O)CC2C)c1F (stereo not shown) [Example 97, 6-[3-Ethyl-2-fluoro-4-(4-hydroxybutoxy)phenyl]-5-methyl-4,5-dihydro-2H-pyridazin-3-one]
IC50: 8.6 nM

Cc1cc(C2=NNC(=O)CC2C)cc(Cl)c1OCC(C)(C)CCO (stereo not shown) [Example 98, 6-[3-chloro-4-(4-hydroxy-2,2-dimethylbutoxy)-5-methylphenyl]-5-methyl-4,5-dihydro-2H-pyridazin-3-one]
IC50: 3.6 nM

CC1CC(=O)NN=C1c1cc(F)c(OCC(C)(C)CCO)c(Cl)c1 (stereo not shown) [Example 99, 6-[3-chloro-5-fluoro-4-(4-hydroxy-2,2-dimethylbutoxy)phenyl]-5-methyl-4,5-dihydro-2H-pyridazin-3-one]
IC50: < 1 nM

CC1CC(=O)NN=C1c1cc(Cl)c(OCC(C)(C)CCO)c(Cl)c1 (stereo not shown) [Example 100, 6-[3,5-dichloro-4-(4-hydroxy-2,2-dimethylbutoxy)phenyl]-5-methyl-4,5-dihydro-2H-pyridazin-3-one]
IC50: 1.6 nM

Cc1cc(C2=NNC(=O)CC2C)cc(F)c1OCC(C)(C)CCO (stereo not shown) [Example 101, 6-[3-Fluoro-4-(4-hydroxy-2,2-dimethylbutoxy)-5-methylphenyl]-5-methyl-4,5-dihydro-2H-pyridazin-3-one]
IC50: 7.5 nM

CC1CC(=O)NN=C1c1ccc(OCC(C)(C)CCO)c(F)c1F (stereo not shown) [Example 102, 6-[2,3-Difluoro-4-(4-hydroxy-2,2-dimethylbutoxy)phenyl]-5-methyl-4,5-dihydro-2H-pyridazin-3-one]
IC50: 3.4 nM

CC1CC(=O)NN=C1c1ccc(OCC(C)(C)CCO)c(Cl)c1F (stereo not shown) [Example 103, 6-[3-Chloro-2-fluoro-4-(4-hydroxy-2,2-dimethylbutoxy)phenyl]-5-methyl-4,5-dihydro-2H-pyridazin-3-one]
IC50: 2.6 nM

CC(O)COc1ccc(C2=NNC(=O)CC2C)c(F)c1C#N (stereo not shown) [Example 104, 2-fluoro-6-(2-hydroxypropoxy)-3-(4-methyl-6-oxo-4,5-dihydro-1H-pyridazin-3-yl)benzonitrile]
IC50: 5.2 nM

CC1CC(=O)NN=C1c1ccc(OCC(C)(C)O)c(C#N)c1F (stereo not shown) [Example 105, 2-Fluoro-6-(2-hydroxy-2-methylpropoxy)-3-(4-methyl-6-oxo-4,5-dihydro-1H-pyridazin-3-yl)benzonitrile]
IC50: 9 nM

CC1CC(=O)NN=C1c1ccc(OCCCO)c(C#N)c1F (stereo not shown) [Example 106, 2-fluoro-6-(3-hydroxypropoxy)-3-(4-methyl-6-oxo-4,5-dihydro-1H-pyridazin-3-yl)benzonitrile]
IC50: 6.4 nM

CC1CC(=O)NN=C1c1ccc(OCC(F)(F)CO)c(F)c1F (stereo not shown) [Example 108, 6-[4-(2,2-Difluoro-3-hydroxypropoxy)-2,3-difluorophenyl]-5-methyl-4,5-dihydro-2H-pyridazin-3-one]
IC50: 4.1 nM

CC1CC(=O)NN=C1c1cc(Cl)c(OCC(F)(F)CO)c(Cl)c1 (stereo not shown) [Example 109, 6-[3,5-dichloro-4-(2,2-difluoro-3-hydroxypropoxy)phenyl]-5-methyl-4,5-dihydro-2H-pyridazin-3-one]
IC50: 1.6 nM

CC1CC(=O)NN=C1c1ccc(OCC(F)(F)CO)c(Cl)c1F (stereo not shown) [Example 110, 6-[3-Chloro-4-(2,2-difluoro-3-hydroxypropoxy)-2-fluorophenyl]-5-methyl-4,5-dihydro-2H-pyridazin-3-one]
IC50: 7.9 nM

CC1CC(=O)NN=C1c1cc(F)c(OCC(F)(F)CO)c(Cl)c1 (stereo not shown) [Example 111, 6-[3-Chloro-4-(2,2-difluoro-3-hydroxypropoxy)-5-fluorophenyl]-5-methyl-4,5-dihydro-2H-pyridazin-3-one]
IC50: 3 nM

CC1CC(=O)NN=C1c1ccc(OCC(F)(F)CO)c(Br)c1F (stereo not shown) [Example 112, 6-[3-bromo-4-(2,2-difluoro-3-hydroxypropoxy)-2-fluorophenyl]-5-methyl-4,5-dihydro-2H-pyridazin-3-one]
IC50: 2.3 nM

Cc1cc(C2=NNC(=O)CC2C)cc(Cl)c1OCC(F)(F)CO (stereo not shown) [Example 113, 6-[3-chloro-4-(2,2-difluoro-3-hydroxypropoxy)-5-methylphenyl]-5-methyl-4,5-dihydro-2H-pyridazin-3-one]
IC50: 1.1 nM

C=Cc1c(OCC(F)(F)CO)ccc(C2=NNC(=O)CC2C)c1F (stereo not shown) [Example 114, 6-[4-(2,2-Difluoro-3-hydroxypropoxy)-2-fluoro-3-vinylphenyl]-5-methyl-4,5-dihydro-2H-pyridazin-3-one]
IC50: 3.3 nM

Cc1c(OCC(F)(F)CO)ccc(C2=NNC(=O)CC2C)c1O (stereo not shown) [Example 115, 6-[4-(2,2-difluoro-3-hydroxypropoxy)-2-hydroxy-3-methylphenyl]-5-methyl-4,5-dihydro-2H-pyridazin-3-one]
IC50: 5.9 nM

Cc1cc(C2=NNC(=O)C[C@H]2C)cc(Cl)c1OCCO [Example 116, (5R)-(−)-6-[3-chloro-4-(2-hydroxyethoxy)-5-methylphenyl]-5-methyl-4,5-dihydro-2H-pyridazin-3-one]
IC50: 4.3 nM

C[C@@H]1CC(=O)NN=C1c1cc(F)c(OCC(C)(C)O)c(F)c1 [Example 117, (5R)-(−)-6-[3,5-Difluoro-4-(2-hydroxy-2-methylpropoxy)phenyl]-5-methyl-4,5-dihydro-2H-pyridazin-3-one]
IC50: 3 nM

C[C@@H]1CC(=O)NN=C1c1ccc(OCC(C)(C)O)c(Cl)c1F [Example 118, (5R)-(−)-6-[3-chloro-2-fluoro-4-(2-hydroxy-2-methylpropoxy)phenyl]-5-methyl-4,5-dihydro-2H-pyridazin-3-one]
IC50: < 1 nM

C[C@@H]1CC(=O)NN=C1c1cc(F)c(OCC2(O)CC2)c(Cl)c1 [Example 119, (5R)-(−)-6-{3-chloro-5-fluoro-4-[(1-hydroxycyclopropyl)methoxy]phenyl}-5-methyl-4,5-dihydro-2H-pyridazin-3-one]
IC50: 2.9 nM
